Data as given in patent US20060293307A1, “Oxazolidinone derivatives as antimicrobials” (priority 2002, published 2006).

Tests used:
M. avium ATCC 49601 = assay: MIC against MAC strains, agar dilution; type: cell-based, Mycobacterium avium; settings: S. No. 01 Ma-1, M. avium ATCC 49601; Middle Brook 7H10 + OADC, 37° C., 14-21 days
M. tuberculosis M-66 = assay: MIC against M. tuberculosis strains, agar dilution; type: cell-based, Mycobacterium tuberculosis; settings: S. No. 08 Mt-, Middle Brook 7H10 + OADC, 37° C., 14-21 days
M. tuberculosis M-149 = assay: MIC against M. tuberculosis strains, agar dilution; type: cell-based, Mycobacterium tuberculosis; settings: S. No. 15 Mt-, Middle Brook 7H10 + OADC, 37° C., 14-21 days
M. tuberculosis PC 4782 = assay: MIC against M. tuberculosis strains, agar dilution; type: cell-based, Mycobacterium tuberculosis; settings: S. No. 21 Mt-, Middle Brook 7H10 + OADC, 37° C., 14-21 days
[1] = tested on: M. intracellulare ATCC 13950; assay: MIC against MAC strains, agar dilution; type: cell-based; settings: S. No. 06 Mi-1, M. intracellulare ATCC 13950; Middle Brook 7H10 + OADC, 37° C., 14-21 days
M. tuberculosis 50 = assay: MIC against M. tuberculosis strains, agar dilution; type: cell-based, Mycobacterium tuberculosis; settings: S. No. 12 Mt-, Middle Brook 7H10 + OADC, 37° C., 14-21 days
[2] = tested on: M. intracellulare ATCC 35761; assay: MIC against MAC strains, agar dilution; type: cell-based; settings: S. No. 07 Mi-2, M. intracellulare ATCC 35761; Middle Brook 7H10 + OADC, 37° C., 14-21 days
M. tuberculosis SGPGI = assay: MIC against M. tuberculosis strains, agar dilution; type: cell-based, Mycobacterium tuberculosis; settings: S. No. 05 Mt-, Middle Brook 7H10 + OADC, 37° C., 14-21 days
M avium ATCC 700897 = assay: MIC against MAC strains, agar dilution; type: cell-based, Mycobacterium avium; settings: S. No. 05 Ma-6, M avium ATCC 700897; Middle Brook 7H10 + OADC, 37° C., 14-21 days
[3] = tested on: M. avium intracellulare 559/97; assay: MIC against MAC strains, agar dilution; type: cell-based; settings: S. No. 15 Mai-7, M. avium intracellulare 559/97; Middle Brook 7H10 + OADC, 37° C., 14-21 days
M. tuberculosis 35801 = assay: MIC against M. tuberculosis strains, agar dilution; type: cell-based, Mycobacterium tuberculosis; settings: S. No. 02 Mt-, Middle Brook 7H10 + OADC, 37° C., 14-21 days
[4] = tested on: M. avium intracellulare 18/98; assay: MIC against MAC strains, agar dilution; type: cell-based; settings: S. No. 16 Mai-9, M. avium intracellulare 18/98; Middle Brook 7H10 + OADC, 37° C., 14-21 days
[5] = tested on: M. avium intracellulare 19/97; assay: MIC against MAC strains, agar dilution; type: cell-based; settings: S. No. 17 Mai-10, M. avium intracellulare 19/97; Middle Brook 7H10 + OADC, 37° C., 14-21 days
[6] = tested on: M. avium intracellulare 4; assay: MIC against MAC strains, agar dilution; type: cell-based; settings: S. No. 11 Mai-2, M. avium intracellulare 4; Middle Brook 7H10 + OADC, 37° C., 14-21 days
M. tuberculosis ATCC = assay: MIC against M. tuberculosis strains, agar dilution; type: cell-based, Mycobacterium tuberculosis; settings: S. No. 01.Mt-, Middle Brook 7H10 + OADC, 37° C., 14-21 days
M avium ATCC 25291 = assay: MIC against MAC strains, agar dilution; type: cell-based, Mycobacterium avium; settings: S. No. 02 Ma-2, M avium ATCC 25291; Middle Brook 7H10 + OADC, 37° C., 14-21 days
M. tuberculosis M-168 = assay: MIC against M. tuberculosis strains, agar dilution; type: cell-based, Mycobacterium tuberculosis; settings: S. No. 09 Mt-, Middle Brook 7H10 + OADC, 37° C., 14-21 days
M. tuberculosis PC = assay: MIC against M. tuberculosis strains, agar dilution; type: cell-based, Mycobacterium tuberculosis; settings: S. No. 18 Mt-, Middle Brook 7H10 + OADC, 37° C., 14-21 days
M. tuberculosis V-3093 = assay: MIC against M. tuberculosis strains, agar dilution; type: cell-based, Mycobacterium tuberculosis; settings: S. No. 14 Mt-, Middle Brook 7H10 + OADC, 37° C., 14-21 days

CO[C@H]1/C=C/O[C@@]2(C)Oc3c(C)c(O)c4c(O)c(c(/C=N/N5CCN(C)CC5)c(O)c4c3C2=O)NC(=O)/C(C)=C\C=C\[C@H](C)[C@H](O)[C@@H](C)[C@@H](O)[C@@H](C)[C@H](OC(C)=O)[C@@H]1C [RIF]
MIC (M. avium ATCC 49601): <0.03 µg/mL | MIC (M. tuberculosis M-66): >32 µg/mL | MIC (M. tuberculosis M-149): >32 µg/mL | MIC (M. tuberculosis PC 4782): 0.06 µg/mL | MIC [1]: 4.0 µg/mL | MIC (M. tuberculosis 50): >32 µg/mL | MIC [2]: 0.25 µg/mL | MIC (M. tuberculosis SGPGI): 16 µg/mL | MIC (M avium ATCC 700897): 1.0 µg/mL | MIC [3]: >32 µg/mL | MIC (M. tuberculosis 35801): 0.5 µg/mL | MIC [4]: >32 µg/mL | MIC [5]: >32 µg/mL | MIC [6]: 0.25 µg/mL | MIC (M. tuberculosis ATCC): 0.25 µg/mL | MIC (M avium ATCC 25291): >32 µg/mL | MIC (M. tuberculosis M-168): 16 µg/mL

C[C@@H]1CN(c2c(F)c(N)c3c(=O)c(C(=O)O)cn(C4CC4)c3c2F)C[C@H](C)N1 [SPAR]
MIC (M. avium ATCC 49601): 0.5 µg/mL | MIC (M. tuberculosis M-66): 32 µg/mL | MIC (M. tuberculosis M-149): 2.0 µg/mL | MIC (M. tuberculosis PC 4782): ≦0.125 μg/ml | MIC [1]: 16 µg/mL | MIC (M. tuberculosis PC): ≦0.125 μg/ml | MIC (M. tuberculosis 50): 4.0 µg/mL | MIC [2]: 2.0 µg/mL | MIC (M. tuberculosis SGPGI): 0.25 µg/mL | MIC (M avium ATCC 700897): 2.0 µg/mL | MIC [3]: 2.0 µg/mL | MIC (M. tuberculosis 35801): ≦0.125 μg/ml | MIC [4]: 2.0 µg/mL | MIC [5]: 1.0 µg/mL | MIC [6]: 1.0 µg/mL | MIC (M. tuberculosis V-3093): ≦0.125 μg/ml | MIC (M. tuberculosis ATCC): ≦0.125 μg/ml | MIC (M avium ATCC 25291): 32 µg/mL | MIC (M. tuberculosis M-168): 2.0 µg/mL

CCc1cc(C(N)=S)ccn1 [ETH]
MIC (M. avium ATCC 49601): 4.0 µg/mL | MIC (M. tuberculosis M-66): >32 µg/mL | MIC (M. tuberculosis M-149): >32 µg/mL | MIC (M. tuberculosis PC 4782): 1.0 µg/mL | MIC [1]: 0.5 µg/mL | MIC (M. tuberculosis PC): 1.0 µg/mL | MIC (M. tuberculosis 50): 32 µg/mL | MIC [2]: >32 µg/mL | MIC (M. tuberculosis SGPGI): 4.0 µg/mL | MIC (M avium ATCC 700897): >32 µg/mL | MIC [3]: >32 µg/mL | MIC (M. tuberculosis 35801): 2.0 µg/mL | MIC [4]: 32 µg/mL | MIC [5]: 16 µg/mL | MIC [6]: 4.0 µg/mL | MIC (M. tuberculosis V-3093): 2.0 µg/mL | MIC (M. tuberculosis ATCC): 2.0 µg/mL | MIC (M avium ATCC 25291): 32 µg/mL | MIC (M. tuberculosis M-168): >32 µg/mL

CC[C@H]1OC(=O)[C@H](C)[C@@H](O[C@H]2C[C@@](C)(OC)[C@@H](O)[C@H](C)O2)[C@H](C)[C@@H](O[C@@H]2O[C@H](C)C[C@H](N(C)C)[C@H]2O)[C@](C)(OC)C[C@@H](C)C(=O)[C@H](C)[C@@H](O)[C@]1(C)O [CLA]
MIC (M. avium ATCC 49601): <0.25 µg/mL | MIC (M. tuberculosis M-66): 16 µg/mL | MIC (M. tuberculosis M-149): 16 µg/mL | MIC (M. tuberculosis PC 4782): 16 µg/mL | MIC [1]: 2.0 µg/mL | MIC (M. tuberculosis PC): 32 µg/mL | MIC (M. tuberculosis 50): 16 µg/mL | MIC [2]: 0.5 µg/mL | MIC (M. tuberculosis SGPGI): 8.0 µg/mL | MIC (M avium ATCC 700897): 2.0 µg/mL | MIC [3]: 32 µg/mL | MIC (M. tuberculosis 35801): >32 µg/mL | MIC [4]: 32 µg/mL | MIC [5]: 32 µg/mL | MIC [6]: <0.25 µg/mL | MIC (M. tuberculosis V-3093): 16 µg/mL | MIC (M. tuberculosis ATCC): 32 µg/mL | MIC (M avium ATCC 25291): 8.0 µg/mL | MIC (M. tuberculosis M-168): 8.0 µg/mL

NNC(=O)c1ccncc1 [INH]
MIC (M. avium ATCC 49601): >32 µg/mL | MIC (M. tuberculosis M-66): >32 µg/mL | MIC (M. tuberculosis M-149): 8.0 µg/mL | MIC (M. tuberculosis PC 4782): 0.25 µg/mL | MIC [1]: >32 µg/mL | MIC (M. tuberculosis PC): 0.25 µg/mL | MIC (M. tuberculosis 50): >32 µg/mL | MIC [2]: 4.0 µg/mL | MIC (M. tuberculosis SGPGI): 1.0 µg/mL | MIC (M avium ATCC 700897): 4.0 µg/mL | MIC [3]: >32 µg/mL | MIC (M. tuberculosis 35801): 0.06 µg/mL | MIC [4]: 8.0 µg/mL | MIC [5]: 32 µg/mL | MIC [6]: 2.0 µg/mL | MIC (M. tuberculosis V-3093): 0.06 µg/mL | MIC (M. tuberculosis ATCC): 0.125 µg/mL | MIC (M avium ATCC 25291): >32 µg/mL | MIC (M. tuberculosis M-168): 4.0 µg/mL
